28 molecules from patent US10940139B2, “Compounds that interact with the Ras superfamily for the treatment of cancers, inflammatory diseases, rasopathies, and fibrotic disease” (Shy Therapeutics LLC, priority 2017, dated 2021) can be followed below.

Where two headings read alike, the source gives them in different places.

Common to all, as to experiment: Ras GTP binding domain inhibition assay (labeled GTP)
For test [1], the target named is KRas G12D/Q61H double mutant (Homo sapiens (Human), UniProt P01116, G12D/Q61H). The essentials: (§1)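 Fluorescence read-out of Cy3-/Cy5-GTP remaining bound to nickel-immobilized His-KRas after washes. Protein was coated overnight at 4° C, then exposed to compound for 3 h at room temperature before a 45 min labeled-GTP incubation.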
Sequence of KRas G12D/Q61H double mutant (P01116-2 other isoform, or with tags, fused parts or gaps G12D/Q61H): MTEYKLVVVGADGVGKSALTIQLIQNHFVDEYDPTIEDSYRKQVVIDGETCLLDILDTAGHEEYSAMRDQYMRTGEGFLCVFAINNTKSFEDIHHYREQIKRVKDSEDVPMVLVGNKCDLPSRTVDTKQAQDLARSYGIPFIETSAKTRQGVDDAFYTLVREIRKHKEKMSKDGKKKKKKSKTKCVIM
Another test concerns the target KRas wild type (Homo sapiens (Human), UniProt P01116). The essentials:
as §1

The target in the next test is KRas G12C mutant (Homo sapiens (Human), UniProt P01116, G12C). The essentials: as §1
Sequence of KRas G12C mutant (P01116-2 other isoform, or with tags, fused parts or gaps G12C): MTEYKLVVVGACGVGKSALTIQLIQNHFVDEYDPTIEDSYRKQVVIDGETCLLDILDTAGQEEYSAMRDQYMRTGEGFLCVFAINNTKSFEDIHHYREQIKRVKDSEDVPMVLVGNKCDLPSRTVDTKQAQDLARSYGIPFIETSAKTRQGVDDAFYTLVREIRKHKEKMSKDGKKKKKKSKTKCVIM
In another test the target is KRas G12D mutant protein (Homo sapiens (Human), UniProt P01116, G12D).
Sequence of KRas G12D mutant protein (P01116-2 other isoform, or with tags, fused parts or gaps G12D): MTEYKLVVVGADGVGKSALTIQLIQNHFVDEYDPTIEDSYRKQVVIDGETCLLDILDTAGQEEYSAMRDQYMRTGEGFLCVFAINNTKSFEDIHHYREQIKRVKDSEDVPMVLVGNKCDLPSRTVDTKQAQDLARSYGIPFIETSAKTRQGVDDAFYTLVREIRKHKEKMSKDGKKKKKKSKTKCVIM
The mark [2] stands for this setting: 20 μM compound, read-out: % Inhibition at 20 μM KRas G12D Q61H.
The mark [3] stands for this setting: 20 μM compound, read-out: % Inhibition at 20 μM KRas wild type.
Where [4] appears, read: 20 μM compound, read-out: % Inhibition at 20 μM KRas G12C.
Setting [5] is: 20 μM compound, read-out: % Inhibition at 20 μM KRas G12D.
Where [6] appears, read: 20 μM, read-out: KRas G12D Q61H % Inh.
Where [7] appears, read: 20 μM, read-out: KRas wild type, % Inh.
Where [8] appears, read: 20 μM, read-out: KRas G12C % Inh.
Setting [9] is: 20 μM, read-out: KRas G12D % Inh.
Where [10] appears, read: 20 μM compound, KRas wild type, read-out: % Inhibition at 20 μM of K-Ras mutant and wild-type protein, KRas wild type.
[11] abbreviates: 20 μM compound, KRas G12C, read-out: % Inhibition at 20 μM of K-Ras mutant and wild-type protein, KRas G12C.
Where [12] appears, read: 20 μM compound, KRas G12D, read-out: % Inhibition at 20 μM of K-Ras mutant and wild-type protein, KRas G12D.

Sequence of KRas wild type (P01116-2 other isoform, or with tags, fused parts or gaps): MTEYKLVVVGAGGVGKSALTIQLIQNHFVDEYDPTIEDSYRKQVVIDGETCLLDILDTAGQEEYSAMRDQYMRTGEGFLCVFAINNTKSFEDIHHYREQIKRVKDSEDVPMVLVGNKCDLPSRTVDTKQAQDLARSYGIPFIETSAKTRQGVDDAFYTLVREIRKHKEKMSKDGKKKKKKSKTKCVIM

As to `O=C(c1csc2c(O)nc(-c3ccccn3)nc12)N1CCN(c2ccccc2O)CC1`, the inhibition at 20 µM was in the range of 25 to 50% in test [1] (setting [2]), 1 to 25% at KRas wild type (setting [3]), 25 to 50% on KRas G12C mutant (setting [4]) and 25 to 50% at KRas G12D mutant protein (setting [5]).

Turning to `O=C(c1csc2c(O)nc(-c3ccccn3)nc12)N1CCOC(c2ccccc2F)C1` (stereo not drawn), the inhibition at 20 µM in test [1] (setting [2]) is 25 to 50%; at KRas wild type (setting [3]) it was 76 to 100%; on KRas G12C mutant (setting [4]) it was 25 to 50%; at KRas G12D mutant protein (setting [5]) it was 51 to 75%.

Take `Cc1sc2nc(-c3ccccn3)nc(NCCCO)c2c1-c1ccccc1` [drawing 2610]: the inhibition at 20 µM in test [1] (setting [6]) fell in the range of 51 to 75%; on KRas wild type (setting [7]), 25 to 50%; at KRas G12C mutant (setting [8]), 51 to 75%; on KRas G12D mutant protein (setting [9]), 51 to 75%.

Take `O=C(Nc1nnc(-c2ccccn2)[nH]1)c1ccc2ccccc2n1` [drawing 2472]: the inhibition at 20 µM in test [1] (setting [6]) is 76 to 100%; at KRas wild type (setting [7]), 51 to 75%; on KRas G12C mutant (setting [8]) it was 25 to 50%; at KRas G12D mutant protein (setting [9]) it was 76 to 100%.

As to `O=C(c1csc2c(O)nc(-c3ccccn3)nc12)N1CCOC(c2ccc(F)cc2)C1` (stereo not drawn) [drawing 2743], the inhibition at 20 µM (in test [1] (setting [2]); at KRas wild type (setting [3]); on KRas G12C mutant (setting [4]); at KRas G12D mutant protein (setting [5])) was 51 to 75% throughout.

On to `COCCNc1nc(-c2nccn2C)nc2sc(-c3ccccc3)c(-c3ccccc3)c12` [drawing 3535], for which the inhibition at 20 µM was 51 to 75% in test [1] (20 μM compound, KRas G12D/Q61H double mutant, read-out: % Inhibition at 20 μM of K-Ras mutant and wild-type protein, KRas G12D Q61H); 1 to 25% at KRas wild type (setting [10]); 51 to 75% on KRas G12C mutant (setting [11]); 76 to 100% on KRas G12D mutant protein (setting [12]).

With `O=C(c1ccc2ccccc2n1)N1CCCc2c(O)nc(-c3ccccn3)nc21` [drawing 2642], the inhibition at 20 µM in test [1] (setting [6]) was 76 to 100%; on KRas wild type (setting [7]) it was 25 to 50%; on KRas G12C mutant (setting [8]) it was 51 to 75%; at KRas G12D mutant protein (setting [9]), 51 to 75%.

Turning to `O=C(OCCc1ccccc1)N1CCCc2c(O)nc(-c3ccccn3)nc21` [drawing 2653], the inhibition at 20 µM was 76 to 100% in test [1] (setting [2]), 51 to 75% on KRas wild type (setting [3]), 25 to 50% at KRas G12C mutant (setting [4]) and 51 to 75% at KRas G12D mutant protein (setting [5]).

In the case of `COCCC(C)Nc1nc(-c2ccccn2)nc2sccc12` (stereo not drawn) [drawing 2709], the inhibition at 20 µM in test [1] (setting [2]) is 25 to 50%; on KRas wild type (setting [3]), 1 to 25%; at KRas G12C mutant (setting [4]), 25 to 50%; at KRas G12D mutant protein (setting [5]), 51 to 75%.

For the molecule `Oc1nc(-c2ccccn2)nc2c1ncn2-c1ccccc1` [drawing 2697], the inhibition at 20 µM was 51 to 75% in test [1] (setting [2]), 51 to 75% at KRas wild type (setting [3]), 25 to 50% at KRas G12C mutant (setting [4]) and 51 to 75% at KRas G12D mutant protein (setting [5]).

On to `COCC(C)Nc1nc(-c2ccccn2)nc2sc(C)c(-c3ccccc3)c12` (stereo not drawn) [drawing 2604], for which the inhibition at 20 µM lay in the range of 51 to 75% in test [1] (setting [6]), 25 to 50% on KRas wild type (setting [7]), 25 to 50% at KRas G12C mutant (setting [8]) and 51 to 75% on KRas G12D mutant protein (setting [9]).

With `COCCCCNC(=O)c1csc2nc(-c3ccccn3)nc(N3CCN(C)CC3)c12` [drawing 2739], the inhibition at 20 µM in test [1] (setting [2]) lay in the range of 25 to 50%; at KRas wild type (setting [3]) it was 1 to 25%; at KRas G12C mutant (setting [4]) it was 25 to 50%; on KRas G12D mutant protein (setting [5]), 25 to 50%.

As to `COc1ccc(CCC(=O)N2CCCc3c(O)nc(-c4ccccn4)nc32)cc1` [drawing 2640], the inhibition at 20 µM in test [1] (setting [6]) fell in the range of 51 to 75%; at KRas wild type (setting [7]), 25 to 50%; on KRas G12C mutant (setting [8]), 51 to 75%; at KRas G12D mutant protein (setting [9]), 25 to 50%.

For the molecule `O=c1nc(-c2ccccn2)[nH]c2c1CCC2` [drawing 2591], the inhibition at 20 µM in test [1] (setting [6]) was 51 to 75%; on KRas wild type (setting [7]), 25 to 50%; on KRas G12C mutant (setting [8]) it was 25 to 50%; at KRas G12D mutant protein (setting [9]) it was 51 to 75%.

With `NC(=O)C1(CNc2nc(-c3ccccn3)nc3c2CCC3)CCCC1` [drawing 2608], the inhibition at 20 µM in test [1] (setting [6]) lay in the range of 51 to 75%; at KRas wild type (setting [7]), 25 to 50%; at KRas G12C mutant (setting [8]) it was 25 to 50%; at KRas G12D mutant protein (setting [9]), 51 to 75%.

With `O=C(c1ccc(=O)[nH]n1)N1CCCc2c(O)nc(-c3ccccn3)nc21` [drawing 2646], the inhibition at 20 µM was in the range of 25 to 50% in test [1] (setting [2]), 51 to 75% on KRas wild type (setting [3]), 25 to 50% on KRas G12C mutant (setting [4]) and 51 to 75% at KRas G12D mutant protein (setting [5]).

`O=C(NCCc1cccnc1)c1csc2c(O)nc(-c3ccccn3)nc12` [drawing 2689]: the inhibition at 20 µM in test [1] (setting [2]) fell in the range of 51 to 75%; on KRas wild type (setting [3]), 76 to 100%; at KRas G12C mutant (setting [4]), 25 to 50%; on KRas G12D mutant protein (setting [5]), 51 to 75%.

As for `COc1ccc(CCNC(=O)c2csc3nc(-c4ccccn4)nc(N4CCN(C)CC4)c23)cn1`, the inhibition at 20 µM (in test [1] (setting [2]); on KRas wild type (setting [3]); at KRas G12C mutant (setting [4]); at KRas G12D mutant protein (setting [5])) was 25 to 50% in each case.

On to `COc1ccc(CCC(=O)Nc2nnc(-c3ccccn3)[nH]2)cc1` [drawing 2469], for which the inhibition at 20 µM in test [1] (setting [6]) fell in the range of 51 to 75%; on KRas wild type (setting [7]), 25 to 50%; at KRas G12C mutant (setting [8]), 25 to 50%; at KRas G12D mutant protein (setting [9]) it was 25 to 50%.

`CC1(N)CCN(C(=O)c2csc3c(O)nc(-c4ccccn4)nc23)CC1` [drawing 2684]: the inhibition at 20 µM in test [1] (setting [2]) lay in the range of 76 to 100%; on KRas wild type (setting [3]), 25 to 50%; at KRas G12C mutant (setting [4]), 76 to 100%; on KRas G12D mutant protein (setting [5]) it was 51 to 75%.

With `OCCOCCNc1nc(-c2ccccn2)nc2scc(-c3ccccc3)c12` [drawing 2609], the inhibition at 20 µM in test [1] (setting [6]) is 51 to 75%; at KRas wild type (setting [7]), 25 to 50%; on KRas G12C mutant (setting [8]) it was 25 to 50%; at KRas G12D mutant protein (setting [9]), 25 to 50%.

Consider `OCCNc1nc(-c2ccccn2)nc2scc(-c3ccccc3)c12` [drawing 2603], for which the inhibition at 20 µM is 25 to 50% in test [1] (setting [6]), 1 to 25% on KRas wild type (setting [7]), 1 to 25% on KRas G12C mutant (setting [8]) and 51 to 75% on KRas G12D mutant protein (setting [9]).

For `O=C(c1csc2c(O)nc(-c3ccccn3)nc12)N1CCC(c2cccnc2)CC1` [drawing 2682], the inhibition at 20 µM was in the range of 51 to 75% in test [1] (setting [2]), 76 to 100% on KRas wild type (setting [3]), 25 to 50% on KRas G12C mutant (setting [4]) and 51 to 75% at KRas G12D mutant protein (setting [5]).

As to `O=C(Nc1nnc(-c2ccccn2)[nH]1)c1ccn(-c2ccccc2)n1` [drawing 2464], the inhibition at 20 µM in test [1] (setting [6]) lay in the range of 76 to 100%; on KRas wild type (setting [7]), 51 to 75%; on KRas G12C mutant (setting [8]) it was 51 to 75%; at KRas G12D mutant protein (setting [9]) it was 76 to 100%.

Regarding `COCC(C)Nc1nc(-c2nccn2C)nc2sc(-c3ccccc3)c(-c3ccccc3)c12` (stereo not drawn) [drawing 3577], the inhibition at 20 µM at KRas wild type (setting [10]), at KRas G12C mutant (setting [11]) and on KRas G12D mutant protein (setting [12]) was 1 to 25% throughout.

As for `Cn1ccnc1-c1nc(O)c2sc(-c3ccccc3)c(-c3cccc(C(F)(F)F)c3)c2n1` [drawing 3592], the inhibition at 20 µM at KRas wild type (setting [10]) was 1 to 25%; on KRas G12C mutant (setting [11]), 0%; on KRas G12D mutant protein (setting [12]), 0%.

`CC(C)Oc1ccc(-c2csc3c(O)nc(-c4nccn4C)nc23)cc1F` [drawing 3609]: the inhibition at 20 µM at KRas wild type (setting [10]), on KRas G12C mutant (setting [11]) and on KRas G12D mutant protein (setting [12]) was 25 to 50% throughout.

Regarding `COCCNc1nc(-c2nccn2C)nc2sc(-c3ccccc3)c(-c3ccccn3)c12` [drawing 3622], the inhibition at 20 µM at KRas wild type (setting [10]) was in the range of 51 to 75%; on KRas G12C mutant (setting [11]), 25 to 50%; at KRas G12D mutant protein (setting [12]), 25 to 50%.
